# Measured values reported in the NIST ThermoML archive (doi:10.1021/je010272x).
# ± gives the expanded uncertainty stated by the source.
# What was measured:
# [1] = Liquid
# [2] = Boiling temperature at pressure P; conditions: Liquid, ebulliometry
smiles,measurement,setting,value
CCC(C)CO (centres undefined) [2-methyl-1-butanol],vapor or sublimation pressure,[1]; 357.85 K,16.7 ± 0.3 kPa
same,vapor or sublimation pressure,[1]; 364.85 K,23.3 ± 0.3 kPa
same,vapor or sublimation pressure,[1]; 370.45 K,30 ± 0.4 kPa
same,vapor or sublimation pressure,[1]; 372.95 K,33.3 ± 0.4 kPa
same,vapor or sublimation pressure,[1]; 375.15 K,36.7 ± 0.4 kPa
same,vapor or sublimation pressure,[1]; 379.05 K,43.3 ± 0.4 kPa
same,vapor or sublimation pressure,[1]; 382.75 K,50 ± 0.4 kPa
same,vapor or sublimation pressure,[1]; 385.65 K,56.6 ± 0.5 kPa
same,vapor or sublimation pressure,[1]; 388.95 K,63.3 ± 0.5 kPa
same,vapor or sublimation pressure,[1]; 390.35 K,66.6 ± 0.5 kPa
same,vapor or sublimation pressure,[1]; 391.65 K,70 ± 0.5 kPa
same,vapor or sublimation pressure,[1]; 394.15 K,76.6 ± 0.5 kPa
same,vapor or sublimation pressure,[1]; 396.65 K,83.3 ± 0.6 kPa
same,vapor or sublimation pressure,[1]; 398.85 K,90 ± 0.6 kPa
same,vapor or sublimation pressure,[1]; 401.05 K,96.6 ± 0.6 kPa
same,vapor or sublimation pressure,[1]; 402.45 K,101.3 ± 0.6 kPa
CCO [ethanol],Boiling temperature at pressure P,[2]; 33.3 kPa,52.60 ± 0.2 °C
same,Boiling temperature at pressure P,[2]; 66.6 kPa,68.00 ± 0.2 °C
same,Boiling temperature at pressure P,[2]; 101.3 kPa,78.30 ± 0.2 °C
